The text below walks through data of US4593090A, “Novel nitrosourea compounds, method for preparing same, and pharmaceutical composition containing same” (Gogo Kimura, priority 1981, dated 1986).

In one data set the test system is Leukemia L1210. Briefly: Activity against Leukemia L1210, intraperitoneal, increase in life span of mice. Format: in vivo, female mice (BDF1 family). The settings on record: for ED (maximum ILS) / ED30: Mus musculus, L1210, ip, ip once a day for 5 successive days; for ED (maximum ILS): daily dosage giving maximum increase of life span, read-out: O.D. (optimum dosage); for ED30: daily dosage increasing average survival days by 30%, read-out: ILS30; for Survivors after 60 days / Max. ILS % / Therapeutic ratio TR: ip; for Survivors after 60 days: 6-membered group; for Max. ILS %: 60-day observation, versus control; for Therapeutic ratio TR: O.D./ILS30. Here is the method: Tests were conducted in accordance with the method for measuring antitumor activity of National Cancer Center Tokyo (A, Hoshi et al, Farumashia 9 464 (1973)). Test compounds were each intraperitoneally (referred to as ip) or orally (referred to as op) administered once a day for 5 successive days to a 6-membered group of femal mice (BDF1 family, each weighing 20 to 23 g) 24 hours after 1×10^5 cells of Leukemia L1210 have been implantated into the abdominal cavities of the mice, and the effect was evaluated by comparing the survival days of treated groups with those of an untreated group of mice (control group) in 60-day observation. An increase percentage of life span (ILS%) was calculated from said average survival days compared with those of the control group. Further, therapeutic ratio (O.D./ILD30, referred to as T.R.) of each tested compound was calculated from the daily dosage of the compound necessary to increase said average survival days by 30% as compared with the control group (this dosage is referred to as ILS 30) and the daily dosage giving a maximum increase of life span to mice implantated with L1210 cells, namely an optimum dosage (referred to as O.D.). The results of five successive days intraperitoneal administrations of test compounds were shown in Tables I to III, and those of five successive oral administrations in Table IV.

Data set [1] is described as follows: Acute toxicity (LD50, Behrens-Karber method). The following applies: mouse, in vivo, ip, mortality during 30 days. Format: in vivo, ICR mice. The protocol: Test compounds, dissolved or suspended in 0.5% aqueous CMC, were each intraperitoneally administered to ICR mice in a dose of 0.1 ml per 10 g body weight. LD50 (mg/kg) value of each test compound was calculated from the mortality of mice during 30 days by the Behrens-Karber method.

A value given as a limit tells only on which side of the number the result lay.

What is called LD50 is the dose at which mortality reaches 50%. With `C=CCN(C[C@H]1O[C@H](OC2CCCCC2)[C@H](O)[C@@H](O)[C@@H]1O)C(=O)N(CCCl)N=O` [Compound 38, 3-(2-propenyl) -3-(cyclohexyl α-D-glucopyranose-6-yl)-1-(2-chloroethyl)-1-nitrosourea], in the data set on Leukemia L1210, the ED (maximum ILS) was 150 mg/kg, the ED30 worked out at 3.28 mg/kg, the “Survivors after 60 days” value is on record as 6/6 and the “Max. ILS %” value is over 700%. In addition, in the data set on Leukemia L1210, the “Therapeutic ratio TR” value came out at 45.7. This molecule had an LD50 at 720 h in data set [1] of 430 mg/kg.
Turning to `O=NN(CCCl)C(=O)N(CCCCO)C[C@H]1O[C@H](OC2CCCCC2)[C@H](O)[C@@H](O)[C@@H]1O` [Compound 43], in the data set with Leukemia L1210, the ED (maximum ILS) came out at 160 mg/kg, the ED30 is 4.68 mg/kg, the “Survivors after 60 days” value is 4/6 and the “Max. ILS %” value is given as over 435%. Moreover, the “Therapeutic ratio TR” value in the data set on Leukemia L1210 was 34.2. In data set [1], this molecule gave an LD50 at 720 h of 520 mg/kg.
As for `O=NN(CCCl)C(=O)N(CC1CC1)C[C@H]1O[C@H](OC2CCCCC2)[C@H](O)[C@@H](O)[C@@H]1O` [Compound 44, 3-cyclopropylmethyl-3-(cyclohexyl α-D-glucopyranose-6-yl)-1-(2-chloroethyl)-1-nitrosourea], in the data set with Leukemia L1210, the ED (maximum ILS) was 150 mg/kg, the ED30 is 3.32 mg/kg, the “Survivors after 60 days” value is reported as 6/6 and the “Max. ILS %” value is on record as over 700%. In the data set with Leukemia L1210, the “Therapeutic ratio TR” value is 45.2. The LD50 at 720 h in data set [1] turned out to be 435 mg/kg.
As to `O=NN(CCCl)C(=O)N(CCC1CCCC1)C[C@H]1O[C@H](OC2CCCCC2)[C@H](O)[C@@H](O)[C@@H]1O` [Compound 45, 3-(2-cyclopentylethyl)-3-(cyclohexyl α-D-glucopyranose-6-yl)-1-(2-chloroethyl)-1-nitrosourea], in the data set with Leukemia L1210, the ED (maximum ILS) amounted to 180 mg/kg, the ED30 was 4.22 mg/kg, the “Survivors after 60 days” value was 5/6 and the “Max. ILS %” value is over 625%. Moreover, the “Therapeutic ratio TR” value in the data set on Leukemia L1210 is listed as 42.7. The same molecule came in with an LD50 at 720 h in data set [1] of 560 mg/kg.
As for `O=NN(CCCl)C(=O)N(Cc1ccccc1)C[C@H]1O[C@H](OC2CCCCC2)[C@H](O)[C@@H](O)[C@@H]1O` [Compound 46, 3-benzyl-3-(cyclohexyl α-D-glucopyranose-6-yl)-1-(2-chloroethyl)-1-nitrosourea], in the data set with Leukemia L1210, the ED (maximum ILS) was found to be 150 mg/kg, the ED30 turned out to be 3.9 mg/kg, the “Survivors after 60 days” value is 4/6 and the “Max. ILS %” value is on record as over 425%. Moreover, in the data set with Leukemia L1210, the “Therapeutic ratio TR” value came out at 38.5. In data set [1], this molecule came in with an LD50 at 720 h of 510 mg/kg.
For `Cc1ccc(CN(C[C@H]2O[C@H](OC3CCCCC3)[C@H](O)[C@@H](O)[C@@H]2O)C(=O)N(CCCl)N=O)cc1` [Compound 47, 3-(p-methylbenzyl)-3-(cyclohexyl α-D-glucopyranose-6-yl)-1-(2-chloroethyl)-1-nitrosourea], in the data set with Leukemia L1210, the ED (maximum ILS) came to 170 mg/kg, the ED30 is 4.97 mg/kg, the “Survivors after 60 days” value is on record as 4/6 and the “Max. ILS %” value is on record as over 440%. The “Therapeutic ratio TR” value in the data set on Leukemia L1210 was found to be 34.2. Also, the LD50 at 720 h in data set [1] came to 545 mg/kg.
As to `COc1ccc(CN(C[C@H]2O[C@H](OC3CCCCC3)[C@H](O)[C@@H](O)[C@@H]2O)C(=O)N(CCCl)N=O)cc1` [Compound 48, 3-(p-methoxybenzyl)-3-(cyclohexyl α-D-glucopyranose-6-yl)-1-(2-chloroethyl)-1-nitrosourea], in the data set with Leukemia L1210, the ED (maximum ILS) was found to be 170 mg/kg, the ED30 was 4.64 mg/kg, the “Survivors after 60 days” value was 4/6 and the “Max. ILS %” value is over 445%. Further, the “Therapeutic ratio TR” value in the data set on Leukemia L1210 is 36.6. The LD50 at 720 h in data set [1] worked out at 530 mg/kg.
For the molecule `COc1cccc(CN(C[C@H]2O[C@H](OC3CCCCC3)[C@H](O)[C@@H](O)[C@@H]2O)C(=O)N(CCCl)N=O)c1OC` [Compound 49, 3-(2,3-dimethoxybenzyl)-3-(cyclohexyl α-D-glucopyranose)-6-yl)-1-(2-chloroethyl-1-nitrosourea], in the data set with Leukemia L1210, the ED (maximum ILS) turned out to be 170 mg/kg, the ED30 was found to be 4.74 mg/kg, the “Survivors after 60 days” value is 4/6 and the “Max. ILS %” value is over 420%. Further, the “Therapeutic ratio TR” value with Leukemia L1210 worked out at 35.9. In data set [1], this molecule displayed an LD50 at 720 h of 560 mg/kg.
`COc1ccc(CO[C@H]2O[C@H](CN(CC(C)C)C(=O)N(CCCl)N=O)[C@@H](O)[C@H](O)[C@H]2O)cc1` [Compound 51, 3-isobutyl-3-(p-methoxybenzyl α-D-glucopyranose-6-yl)-1-(2-chloroethyl)-1-nitrosourea]: in the data set with Leukemia L1210, the ED (maximum ILS) was 120 mg/kg, the ED30 came to 3.3 mg/kg, the “Survivors after 60 days” value is 4/6 and the “Max. ILS %” value is over 430%. In addition, in the data set on Leukemia L1210, the “Therapeutic ratio TR” value is listed as 36.4. Also, the LD50 at 720 h in data set [1] was 350 mg/kg.
For the molecule `COc1cc(CO[C@H]2O[C@H](CN(CC(C)C)C(=O)N(CCCl)N=O)[C@@H](O)[C@H](O)[C@H]2O)cc(OC)c1OC` [Compound 53, 3-isobutyl-3-(3,4,5-trimethoxybenzyl α-D-glucopyranose-6-yl)-1-(2-chloroethyl)-1-nitrosourea], in the data set on Leukemia L1210, the ED (maximum ILS) came to 120 mg/kg, the ED30 was 3.95 mg/kg, the “Survivors after 60 days” value is listed as 4/6 and the “Max. ILS %” value was over 425%. Also, in the data set with Leukemia L1210, the “Therapeutic ratio TR” value is 30.4. This molecule came in with an LD50 at 720 h in data set [1] of 350 mg/kg.
On to `CC(C)CN(C[C@H]1O[C@H](OCc2ccccc2)[C@H](O)[C@@H](O)[C@@H]1O)C(=O)N(CCCl)N=O` [Compound 54, 3-isobutyl-3-(benzyl α-D-glucopyranose-6-yl)-1-(2-chloroethyl)-1-nitrosourea], for which, in the data set on Leukemia L1210, the ED (maximum ILS) came to 150 mg/kg, the ED30 is 3.93 mg/kg, the “Survivors after 60 days” value is reported as 4/6 and the “Max. ILS %” value is over 450%. Besides, the “Therapeutic ratio TR” value in the data set on Leukemia L1210 was 38.2. In addition, the median lethal dose (LD50) at 720 h in data set [1] was determined as 450 mg/kg.
Regarding `CCCCO[C@H]1O[C@H](CO)[C@@H](O)[C@H](O)[C@H]1N(CCCC)C(=O)N(CCCl)N=O` [Compound 55, 3-n-butyl-3-(n-butyl α-D-glucopyranose-2-yl)-1-(2-chloroethyl)-1-nitrosourea], in the data set with Leukemia L1210, the ED (maximum ILS) turned out to be 180 mg/kg, the ED30 turned out to be 6.05 mg/kg, the “Survivors after 60 days” value is 3/6 and the “Max. ILS %” value was over 350%. Also, in the data set with Leukemia L1210, the “Therapeutic ratio TR” value turned out to be 29.8. The same molecule showed an LD50 at 720 h in data set [1] of 465 mg/kg.
`C=C(C)CN(C(=O)N(CCCl)N=O)[C@H]1[C@@H](OCCCC)O[C@H](CO)[C@@H](O)[C@@H]1O` [Compound 56, 3-(2-methyl-2-propenyl)-3-(n-butyl α-D-glucopyranose-2-yl)-1-(2-chloroethyl)-1-nitrosourea]: in the data set with Leukemia L1210, the ED (maximum ILS) was found to be 170 mg/kg, the ED30 amounted to 5.38 mg/kg, the “Survivors after 60 days” value is recorded as 3/6 and the “Max. ILS %” value is over 360%. Moreover, in the data set with Leukemia L1210, the “Therapeutic ratio TR” value is given as 31.6. This molecule returned an LD50 at 720 h in data set [1] of 460 mg/kg.
Consider `CCCCO[C@H]1O[C@H](CO)[C@@H](O)[C@H](O)[C@H]1N(CCOCCO)C(=O)N(CCCl)N=O` [Compound 58, 3-[2-(2-hydroxyethoxy)ethyl]-3-(n-butyl α-D-glucopyranose-2-yl)-1-(2-chloroethyl)-1-nitrosourea], for which, in the data set with Leukemia L1210, the ED (maximum ILS) amounted to 190 mg/kg, the ED30 was 4.2 mg/kg, the “Survivors after 60 days” value is recorded as 4/6 and the “Max. ILS %” value was over 422%. Besides, the “Therapeutic ratio TR” value in the data set on Leukemia L1210 is 45.2. The molecule also showed an LD50 at 720 h in data set [1] of 585 mg/kg.
With `CCC(C)O[C@H]1O[C@H](CO)[C@@H](O)[C@H](O)[C@H]1N(CC(C)C)C(=O)N(CCCl)N=O` (stereo partly drawn) [Compound 59, 3-isobutyl-3-(sec-butyl α-D-glucopyranose-2-yl)-1-(2-chloroethyl)-1-nitrosourea], in the data set with Leukemia L1210, the ED (maximum ILS) stood at 200 mg/kg, the ED30 amounted to 5.8 mg/kg, the “Survivors after 60 days” value is 3/6 and the “Max. ILS %” value was over 348%. Moreover, the “Therapeutic ratio TR” value with Leukemia L1210 was 34.5. This molecule yielded an LD50 at 720 h in data set [1] of 605 mg/kg.
For `C=C(C)CN(C(=O)N(CCCl)N=O)[C@H]1[C@@H](OC(C)CC)O[C@H](CO)[C@@H](O)[C@@H]1O` (stereo partly drawn) [Compound 60, 3-(2-methyl-2-propenyl)-3-(sec-butyl α -D-glucopyranose-2-yl)-1-(2-chloroethyl)-1-nitrosourea], in the data set on Leukemia L1210, the ED (maximum ILS) turned out to be 200 mg/kg, the ED30 stood at 7.15 mg/kg, the “Survivors after 60 days” value is reported as 3/6 and the “Max. ILS %” value is listed as over 345%. Also, the “Therapeutic ratio TR” value with Leukemia L1210 amounted to 28.0. In data set [1], the LD50 at 720 h turned out to be 580 mg/kg.
Take `CC(C)CO[C@H]1O[C@H](CO)[C@@H](O)[C@H](O)[C@H]1N(CC(C)C)C(=O)N(CCCl)N=O` [Compound 61, 3-isobutyl-3-(isobutyl α-D-glucopyranose-2-yl)-1-(2-chloroethyl)-1-nitrosourea]: in the data set with Leukemia L1210, the ED (maximum ILS) amounted to 190 mg/kg, the ED30 came out at 5.86 mg/kg, the “Survivors after 60 days” value is 3/6 and the “Max. ILS %” value is reported as over 340%. Also, the “Therapeutic ratio TR” value in the data set on Leukemia L1210 came to 32.4. Moreover, the LD50 at 720 h in data set [1] came to 595 mg/kg.
